Experimental data from patent US9650399B2, “Salicylic acid derivatives, pharmaceutically acceptable salt thereof, composition thereof and method of use thereof” (The Governing Council of the University of Toronto, priority 2012, dated 2017).
Read-outs that look alike come from different tables or passages of the source. Blank lines part the entries; values can stand above or below the molecule they belong to.

What was measured:
BTSCs = experiment: alamarBlue cytotoxicity across BTSC lines; type: cell-based, human
Experimental: (§1) First, the library was screened for biological activity against a set of three representative GBM BTSCs derived from GBM patients, including the very aggressive GBM BTSC lines, BTSC73M, BTSC30M, BTSC68EF. Dissociated BTSC spheres were seeded at 1500 cells/96-well and treated with drug compound or vehicle (DMSO) one day after plating. Cell viability following drug treatment was assessed after 72 hrs using the ALAMARBLUE™ assay (Invitrogen) according to the manufacturer's instructions. All culture experiments were performed in triplicate with a minimum of three wells per condition.
(§2) BTSC spheres were dissociated to single cells with the enzyme Accumax (Innovative Technologies), seeded at 1500 cells/96-well and treated with drug or vehicle (DMSO) one day after plating. […] BTSC spheres were dissociated to single cells as above and plated in 96 well plates in triplicate at 3000 cells/96-well. […] Cell viability following drug treatment was assessed three days later using the ALAMARBLUE™ assay (Invitrogen) according to the manufacturer's instructions. All culture experiments were performed in triplicate with a minimum of three wells per condition.

147EF = experiment: alamarBlue cell viability, BTSC 147EF; type: cell-based, human; details: Table 4 library screen; for IC50: Homo sapiens
From the text: BTSC spheres were dissociated to single cells with the enzyme Accumax (Innovative Technologies), seeded at 1500 cells/96-well and treated with drug or vehicle (DMSO) one day after plating. Cytotoxicity studies were repeated independently at Sickkids Hospital using BTSC lines 25M, 67EF, 73EF, 84EF and 127EF. BTSC spheres were dissociated to single cells as above and plated in 96 well plates in triplicate at 3000 cells/96-well. In both sets of experiments drugs were used as serial dilutions within the range of 5 μM to 100 nM in the first set and 25 μM to 10 nM. Cell viability following drug treatment was assessed three days later using the ALAMARBLUE™ assay (Invitrogen) according to the manufacturer's instructions. All culture experiments were performed in triplicate with a minimum of three wells per condition. Table 4 below illustrates a screen of the library against a number of BTSCs using ALAMARBLUE™ assay.

BTSC30M = experiment: alamarBlue cell viability, BTSC 30M; type: cell-based, human; details: for IC50: Homo sapiens
Experimental: as §1, §2

BTSC68EF = experiment: alamarBlue cell viability, BTSC 68EF; type: cell-based, human; details: Table 4 library screen, alamarBlue; for IC50: Homo sapiens, read-out: 68EF IC50
Experimental: as §1, §2

BTSC73M = experiment: alamarBlue cell viability, BTSC 73M; type: cell-based, human; details: alamarBlue; for IC50: Homo sapiens
Experimental: as §1, §2

[1] = system: leukemia cancer cells (AML-2); experiment: IC50 in leukemia cancer cells; type: cell-based; details: Table 6
[2] = system: Breast cancer cells (MDA-MB-468); experiment: IC50 in breast cancer cells; type: cell-based; details: Homo sapiens, Table 6
Prostate (DU145) = experiment: IC50 in prostate cancer cells; type: cell-based; details: Homo sapiens, DU-145; Table 6
[3] = system: patient-derived pancreatic cancer line (Panc10.05); experiment: MTS cell survival, pancreatic cancer line; type: cell-based; details: Homo sapiens, Panc1005, Panc10.05, 72 h, read-out: ED50 (IC50)
Experimental: Low passage patient-derived pancreatic cancer line (Panc10.05) was plated in 96-well plates (3×10^3 per well) and allowed to attach overnight. STAT3 inhibitors 31, 41, 42 and 38 were added at indicated concentrations. Cell survival was measured 72 h after drug addition with the MTS assay.

JAK2 = target: T1, JAK2 (Homo sapiens, UniProt O60674); experiment: HotSpot radiometric kinase assay, JAK2; type: biochemical; details: 5 uM compound, 10 μM ATP, duplicate (Data 1, Data 2)
T1 construct: purchased Reaction Biology Corporation
T1 sequence (O60674 whole entry): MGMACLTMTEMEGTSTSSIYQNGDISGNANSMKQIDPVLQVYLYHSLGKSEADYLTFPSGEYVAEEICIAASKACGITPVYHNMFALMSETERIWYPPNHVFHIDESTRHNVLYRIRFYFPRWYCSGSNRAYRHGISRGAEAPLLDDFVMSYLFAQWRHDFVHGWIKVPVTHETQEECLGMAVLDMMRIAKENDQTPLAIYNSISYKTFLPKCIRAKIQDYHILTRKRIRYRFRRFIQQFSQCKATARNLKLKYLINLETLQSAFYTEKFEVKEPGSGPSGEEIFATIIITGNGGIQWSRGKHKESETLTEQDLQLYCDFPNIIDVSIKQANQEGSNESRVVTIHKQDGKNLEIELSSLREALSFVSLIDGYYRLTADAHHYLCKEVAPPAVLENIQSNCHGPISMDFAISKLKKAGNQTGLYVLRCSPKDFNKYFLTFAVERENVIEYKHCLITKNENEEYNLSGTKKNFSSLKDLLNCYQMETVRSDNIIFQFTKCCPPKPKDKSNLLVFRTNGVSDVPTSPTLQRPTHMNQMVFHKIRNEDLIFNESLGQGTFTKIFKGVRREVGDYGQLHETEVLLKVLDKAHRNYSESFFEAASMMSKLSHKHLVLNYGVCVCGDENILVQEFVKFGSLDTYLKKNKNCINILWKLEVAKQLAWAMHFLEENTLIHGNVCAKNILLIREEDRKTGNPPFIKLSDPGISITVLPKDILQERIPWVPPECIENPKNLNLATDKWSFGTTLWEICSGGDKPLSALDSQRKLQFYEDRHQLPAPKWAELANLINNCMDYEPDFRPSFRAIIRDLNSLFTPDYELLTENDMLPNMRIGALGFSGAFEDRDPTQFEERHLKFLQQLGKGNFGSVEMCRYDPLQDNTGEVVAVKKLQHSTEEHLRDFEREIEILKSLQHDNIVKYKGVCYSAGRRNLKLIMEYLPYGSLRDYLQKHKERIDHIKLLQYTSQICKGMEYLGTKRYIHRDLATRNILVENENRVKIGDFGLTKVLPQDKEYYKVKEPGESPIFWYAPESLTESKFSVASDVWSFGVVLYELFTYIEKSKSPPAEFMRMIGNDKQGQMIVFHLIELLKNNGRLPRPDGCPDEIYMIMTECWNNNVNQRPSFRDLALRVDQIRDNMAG
Experimental: (§3) Briefly, this assay employs a radiometric detection system to measure kinase phosphoryl transfer activity.
(§4) Test compound was evaluated at a single dose of 5 μM in duplicate mode. […] Reactions were carried out at 10 μM ATP.
(§5) Preliminary screen against AKT, c-Src, ERK1, JaK1 and JaK2 was performed at Reaction Biology Corporation (www.reactionbiology.com, Malvern, Pa.) using the “HotSpot” assay platform. Specific kinase/substrate pairs along with their required cofactors were prepared in reaction buffer; 20 mM Hepes pH 7.5, 10 mM MgCl2, 1 mM EGTA, 0.02% Brij35, 0.02 mg/ml BSA, 0.1 mM Na3VO4, 2 mM DTT, 1% DMSO. The screen was completed in duplicate at a single concentration of 5 μM. The reaction well with the subject compound was treated with a mixture of ATP (Sigma, St. Louis Mo.) and ^33P ATP (Perkin Elmer, Waltham Mass.) to a final concentration of 10 μM. […] Reaction wells were kept at room temperature for 120 minutes, followed by spotting each of the reactions onto P81 ion exchange filter paper (Whatman Inc., Piscataway, N.J.). […] Background was subtracted using control reactions and the kinase activity data was expressed as the percent remaining kinase activity in test samples compared to vehicle (dimethyl sulfoxide) reactions. All IC50 values (table 3) and curve fitting were produced using Prism (GraphPad Software) (FIG. 5).

AKT1 = target: T2, AKT1 (Homo sapiens, UniProt P31749); experiment: HotSpot radiometric kinase assay, AKT1; type: biochemical; details: 5 uM compound, 10 μM ATP, duplicate (Data 1, Data 2)
T2 construct: purchased Reaction Biology Corporation
T2 sequence (P31749 whole entry): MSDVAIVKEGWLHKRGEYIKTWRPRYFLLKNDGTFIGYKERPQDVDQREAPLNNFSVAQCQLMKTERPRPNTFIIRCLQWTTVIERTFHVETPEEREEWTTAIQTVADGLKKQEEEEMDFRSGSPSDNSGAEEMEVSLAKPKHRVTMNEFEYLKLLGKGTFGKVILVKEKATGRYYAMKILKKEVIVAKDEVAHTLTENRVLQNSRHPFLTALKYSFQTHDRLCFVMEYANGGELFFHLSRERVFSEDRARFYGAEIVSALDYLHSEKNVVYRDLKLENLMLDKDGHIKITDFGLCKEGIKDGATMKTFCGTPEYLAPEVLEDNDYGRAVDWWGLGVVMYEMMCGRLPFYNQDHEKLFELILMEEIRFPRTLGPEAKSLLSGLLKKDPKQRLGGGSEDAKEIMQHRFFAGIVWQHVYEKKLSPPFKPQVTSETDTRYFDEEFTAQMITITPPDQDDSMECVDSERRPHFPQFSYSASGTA

c-Src = target: T3, c-Src (Homo sapiens, UniProt P12931); experiment: HotSpot radiometric kinase assay, c-Src; type: biochemical; details: 5 uM compound, 10 μM ATP, duplicate (Data 1, Data 2)
T3 construct: purchased Reaction Biology Corporation
T3 sequence (P12931 whole entry): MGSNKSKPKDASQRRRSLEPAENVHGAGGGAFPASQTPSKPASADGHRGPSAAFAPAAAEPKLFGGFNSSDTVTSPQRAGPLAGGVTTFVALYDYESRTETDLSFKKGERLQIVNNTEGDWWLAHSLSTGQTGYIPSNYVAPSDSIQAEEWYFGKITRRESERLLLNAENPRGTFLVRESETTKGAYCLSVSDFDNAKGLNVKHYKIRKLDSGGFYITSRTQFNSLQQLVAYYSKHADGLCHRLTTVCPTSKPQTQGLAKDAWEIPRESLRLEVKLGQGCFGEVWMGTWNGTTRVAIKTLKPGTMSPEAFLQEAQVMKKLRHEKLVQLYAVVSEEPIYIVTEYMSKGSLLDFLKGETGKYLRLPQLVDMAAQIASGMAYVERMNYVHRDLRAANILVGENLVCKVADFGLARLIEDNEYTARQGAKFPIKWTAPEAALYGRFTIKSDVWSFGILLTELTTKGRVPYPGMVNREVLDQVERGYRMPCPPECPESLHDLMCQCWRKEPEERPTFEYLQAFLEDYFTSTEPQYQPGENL
Experimental: as §3, §4, §5

ERK1 = target: T4, ERK1 (Homo sapiens, UniProt P27361); experiment: HotSpot radiometric kinase assay, ERK1; type: biochemical; details: 5 uM compound, 10 μM ATP, duplicate (Data 1, Data 2)
T4 construct: purchased Reaction Biology Corporation
T4 sequence (P27361 whole entry): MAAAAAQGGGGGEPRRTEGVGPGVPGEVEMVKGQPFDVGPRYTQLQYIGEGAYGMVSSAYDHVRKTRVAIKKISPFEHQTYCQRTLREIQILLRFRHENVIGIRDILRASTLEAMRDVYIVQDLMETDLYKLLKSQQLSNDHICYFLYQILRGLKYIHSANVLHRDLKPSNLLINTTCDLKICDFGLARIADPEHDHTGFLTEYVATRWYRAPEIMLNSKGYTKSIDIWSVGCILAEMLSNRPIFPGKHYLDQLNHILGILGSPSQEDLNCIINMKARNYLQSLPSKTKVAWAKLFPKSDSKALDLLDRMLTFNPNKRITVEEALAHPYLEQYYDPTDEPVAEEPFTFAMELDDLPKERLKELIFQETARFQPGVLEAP

JAK1 = target: T5, JAK1 (Homo sapiens, UniProt P23458); experiment: HotSpot radiometric kinase assay, JAK1; type: biochemical; details: 5 uM compound, 10 μM ATP, duplicate (Data 1, Data 2)
T5 construct: purchased Reaction Biology Corporation
T5 sequence (P23458 whole entry): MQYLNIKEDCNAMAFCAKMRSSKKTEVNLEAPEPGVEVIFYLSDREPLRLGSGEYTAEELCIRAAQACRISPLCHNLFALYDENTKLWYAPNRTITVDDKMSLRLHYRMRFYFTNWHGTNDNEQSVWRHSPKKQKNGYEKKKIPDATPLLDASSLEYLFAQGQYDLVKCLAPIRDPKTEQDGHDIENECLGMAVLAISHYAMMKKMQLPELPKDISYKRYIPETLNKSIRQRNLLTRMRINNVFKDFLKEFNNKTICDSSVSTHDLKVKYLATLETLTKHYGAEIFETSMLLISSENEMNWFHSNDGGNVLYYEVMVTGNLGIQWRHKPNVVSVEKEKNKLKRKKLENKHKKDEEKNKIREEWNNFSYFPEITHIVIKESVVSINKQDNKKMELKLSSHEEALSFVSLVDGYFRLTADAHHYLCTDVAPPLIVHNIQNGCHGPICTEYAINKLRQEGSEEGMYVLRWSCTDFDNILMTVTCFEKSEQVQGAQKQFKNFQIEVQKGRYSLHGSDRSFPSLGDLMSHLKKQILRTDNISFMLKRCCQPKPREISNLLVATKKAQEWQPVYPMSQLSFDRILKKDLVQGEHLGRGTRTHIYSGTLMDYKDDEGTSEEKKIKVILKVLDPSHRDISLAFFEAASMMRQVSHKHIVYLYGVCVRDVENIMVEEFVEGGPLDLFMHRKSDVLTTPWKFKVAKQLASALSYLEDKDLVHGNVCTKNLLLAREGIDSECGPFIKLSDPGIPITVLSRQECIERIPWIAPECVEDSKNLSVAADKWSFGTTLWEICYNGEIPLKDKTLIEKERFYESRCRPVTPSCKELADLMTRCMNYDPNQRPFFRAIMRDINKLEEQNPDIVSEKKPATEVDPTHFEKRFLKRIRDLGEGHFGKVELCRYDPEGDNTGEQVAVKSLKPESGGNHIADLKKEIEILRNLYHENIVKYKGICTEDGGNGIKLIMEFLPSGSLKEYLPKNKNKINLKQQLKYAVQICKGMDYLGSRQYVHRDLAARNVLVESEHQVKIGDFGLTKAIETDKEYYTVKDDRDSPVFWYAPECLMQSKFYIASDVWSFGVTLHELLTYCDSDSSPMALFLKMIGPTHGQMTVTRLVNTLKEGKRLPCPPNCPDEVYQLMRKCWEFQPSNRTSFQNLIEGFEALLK
Experimental: as §3, §4, §5

pSTAT3 (Y705) = experiment: Western blot of phosphorylated STAT3 in BTSCs; type: cell-based, human; details: BTSC 73M, 1 μM inhibitor
From the text: Blots were stained with antibodies: phospho-Y705, phospho-S727, Bcl-xL, cyclin D1, PARP and Actin. Bands were visualized with the ECL PLUS™ Western Blotting Detection System and […]™ (Amersham). […] BTSC spheres were lysed in modified RIPA buffer supplemented with Complete Mini protease (Roche) and Halt phosphatase (Thermo Scientific) inhibitor cocktails. […] Blots were stained with the following antibodies: phospho-STAT3 Y705 (1:1000, Cell Signalling Technology), phospho-STAT3 S727 (1:1000, Cell Signalling Technology), STAT3 (1:1000, Santa Cruz Biotechnology), Bcl-xL (1:1000, Cell Signalling Technology), cyclin D1 (1:1000, Cell Signalling Technology) PARP (1:1000, Cell Signalling Technology) and Actin (1:2500, Santa Cruz Biotechnology). HRP conjugated secondary antibodies, goat anti-rabbit (Cell Signalling Technology) were used at 1:2000 and donkey anti-mouse, donkey anti-goat, and goat anti-rabbit, (Calbiochem) were used at 1:6000. Bands were visualized with the ECL Plus Western Blotting Detection System and Hyperfilm (Amersham).

[4] = Table 4 library screen, alamarBlue
[5] = read-out: IC50 BTSC 30M, Table 6, in parallel with other cancer lines
[6] = Table 4 library screen, read-out: 73M IC50

Structure (SMILES): CN(CC(=O)N(Cc1ccc(C2CCCCC2)cc1)c1ccc(C(=O)O)c(O)c1)S(=O)(=O)c1c(F)c(F)c(F)c(F)c1F [Compound 1, reference compound]
- activity against BTSCs (in words) (BTSCs; cytotoxicity, alamarBlue): low μM activity

Structure (SMILES): Cc1ccc(S(=O)(=O)N(C)CC(=O)N(Cc2ccc(C3CCCCC3)cc2)c2ccc(N)cc2)cc1 [Compound 11, N-(4-aminophenyl)-N-(4-cyclohexylbenzyl)-2-(N,4-dimethylphenylsulfonamido)acetamide]
- 147EF IC50 (μM) (147EF): no effect
- 30M IC50 (μM) (BTSC30M; [4]): no effect
- 68EF IC50 (μM) (BTSC68EF): no effect
- 73M IC50 (μM) (BTSC73M; Table 4 library screen): no effect

Structure (SMILES): CC(=O)Oc1cc(N(Cc2ccc(C3CCCCC3)cc2)C(=O)CN(C)S(=O)(=O)c2ccc(C)cc2)ccc1C(=O)O [Compound 23, 2-acetoxy-4-(N-(4-cyclohexylbenzyl)-2-(N,4-dimethylphenylsulfonamido)acetamido)benzoic acid]
- 147EF IC50 (μM) (147EF): no effect
- 30M IC50 (μM) (BTSC30M; [4]): no effect
- 68EF IC50 (μM) (BTSC68EF): no effect
- 73M IC50 (μM) (BTSC73M; Table 4 library screen): no effect

- IC50 [1]: < 1 µM
- IC50 [2]: < 1 µM
- IC50 (Prostate (DU145)): 14.2 µM
Structure (SMILES): CN(CC(=O)N(Cc1ccc(C2CCCCC2)cc1)c1ccc(C(=O)O)c(F)c1)S(=O)(=O)c1c(F)c(F)c(F)c(F)c1F [Compound 33, 4-(N-(4-cyclohexylbenzyl)-2-(2,3,4,5,6-pentafluoro-N-methylphenylsulfonamido)acetamido)-2-fluorobenzoic acid]
- IC50 (147EF): 0.935 µM
- IC50 (BTSC30M; read-out: 30M IC50 (μM), Table 4 library screen, alamarBlue): 0.724 µM
- IC50 (BTSC30M; read-out: IC50 (nM) in BTSC 30M): 0.724 ± 0.013 µM
- IC50 (BTSC30M; [5]): 0.689 µM
- IC50 (BTSC68EF): 1.46 µM
- IC50 (BTSC73M; [6]): 1.23 µM
- EC50 (BTSCs; Homo sapiens, collective range over 8 BTSC lines, read-out: EC50s across all 8 BTSCs evaluated): 0.066 to 1.15 µM
- IC50 (BTSCs; Homo sapiens, collective range, units given in the value, read-out: IC50 values of the top four ranked compounds against BTSCs): 0.1 to 3.8 µM

Structure (SMILES): CN(CC(=O)N(Cc1ccc(C2CCCCC2)cc1)c1ccc(NC(=O)Cc2nnn[nH]2)cc1)S(=O)(=O)c1c(F)c(F)c(F)c(F)c1F [Compound 41, N-(4-(2-(1H-tetrazol-5-yl)acetamido)phenyl)-N-(4-cyclohexylbenzyl)-2-(2,3,4,5,6-pentafluoro-N-methylphenylsulfonamido)acetamide]
- IC50 (BTSC73M; [6]): 3.5 µM
- IC50 [3]: 16.4 µM

Structure (SMILES): Cc1ccc(S(=O)(=O)N(C)CC(=O)N(Cc2ccc(C3CCCCC3)cc2)c2ccc(C(=O)O)c(F)c2)cc1 [Compound 43, 4-(N-(4-cyclohexylbenzyl)-2-(N,4-dimethylphenylsulfonamido)acetamido)-2-fluorobenzoic acid]
- 147EF IC50 (μM) (147EF): no effect
- 30M IC50 (μM) (BTSC30M; [4]): no effect
- 68EF IC50 (μM) (BTSC68EF): no effect
- 73M IC50 (μM) (BTSC73M; Table 4 library screen): no effect

Structure (SMILES): Cc1ccc(S(=O)(=O)N(C)CC(=O)N(Cc2ccc(C3CCCCC3)cc2)c2ccc(C(=O)NO)cc2)cc1 [Compound 44, 4-(N-(4-cyclohexylbenzyl)-2-(N,4-dimethylphenylsulfonamido)acetamido)-N-hydroxybenzamide]
- IC50 (147EF): 2.45 µM
- 30M IC50 (μM) (BTSC30M; [4]): no effect
- IC50 (BTSC68EF): 1.74 µM
- 73M IC50 (μM) (BTSC73M; Table 4 library screen): no effect

Structure (SMILES): Cc1ccc(S(=O)(=O)N(C)CC(=O)N(Cc2ccc(C3CCCCC3)cc2)c2ccc(O)cc2)cc1 [Compound 45, N-(4-cyclohexylbenzyl)-2-(N,4-dimethylphenylsulfonamido)-N-(4-hydroxyphenyl)acetamide]
- 147EF IC50 (μM) (147EF): no effect
- 30M IC50 (μM) (BTSC30M; [4]): no effect
- 68EF IC50 (μM) (BTSC68EF): no effect
- 73M IC50 (μM) (BTSC73M; Table 4 library screen): no effect

Structure (SMILES): CC(=O)Oc1cc(N(Cc2ccc(C3CCCCC3)cc2)C(=O)CN(C)S(=O)(=O)c2c(F)c(F)c(F)c(F)c2F)ccc1C(=O)O [SH-04-08, 2-acetoxy-4-(N-(4-cyclohexylbenzyl)-2-(2,3,4,5,6-pentafluoro-N-methylphenylsulfonamido)acetamido)benzoic acid]
- IC50 [1]: < 1 µM
- IC50 (BTSC30M; [5]): 0.9 µM
- IC50 [2]: < 1 µM
- IC50 (Prostate (DU145)): 12 µM

Structure (SMILES): CC(=O)Oc1cc(N(Cc2ccc(C3CCCCC3)cc2)C(=O)CN(C)S(=O)(=O)c2ccc(C)cc2)ccc1C(=O)O [SH-05-19, 2-acetoxy-4-(N-(4-cyclohexylbenzyl)-2-(N,4-dimethylphenylsulfonamido)acetamido)benzoic acid]
- remaining activity at 5 µM (JAK2; read-out: % Enzyme activity relative to DMSO (control), JAK2): 46.1%
- % Enzyme activity relative to DMSO (control), JAK2 (JAK2; remaining activity): 47.70%
- remaining activity at 5 µM (AKT1; read-out: % Enzyme activity relative to DMSO (control), AKT1): 90.6%
- % Enzyme activity relative to DMSO (control), AKT1 (AKT1; remaining activity): 87.91%
- IC50 [1]: < 1 µM
- remaining activity at 5 µM (c-Src; read-out: % Enzyme activity relative to DMSO (control), c-Src): 41.6%
- % Enzyme activity relative to DMSO (control), c-Src (c-Src; remaining activity): 39.16%
- IC50 (BTSC30M; [5]): 0.505 µM
- remaining activity at 5 µM (ERK1; read-out: % Enzyme activity relative to DMSO (control), ERK1): 119%
- % Enzyme activity relative to DMSO (control), ERK1 (ERK1; remaining activity): 126.49%
- IC50 [2]: < 1 µM
- remaining activity at 5 µM (JAK1; read-out: % Enzyme activity relative to DMSO (control), JAK1): 98.3%
- % Enzyme activity relative to DMSO (control), JAK1 (JAK1; remaining activity): 97.79%
- IC50 (Prostate (DU145)): 9.8 µM

Structure (SMILES): C[C@H](NC(=O)/C(C#N)=C/c1cccc(Br)n1)c1ccccc1 [WP1066, reference compound]
- IC50 (BTSC30M; read-out: IC50 (μM) 30M, Table 2, BTSC 30M, alamarBlue, 72 hrs): 1.8 ± 0.22 µM
- IC50 (BTSC73M; Table 2, BTSC 73M, 72 hrs, read-out: IC50 (μM) 73M): 2.1 µM
- pSTAT3 suppression, comparative Western blot (pSTAT3 (Y705)): equipotent pSTAT3 suppression
